Test results from patent US20240368151A1, “NOVEL ERGOLINES AND METHODS OF TREATING MOOD DISORDERS” (priority 2021, published 2024).
Read-outs that look alike come from different tables or passages of the source.

How the values were obtained:
[1] = Metabolic stability in mouse liver microsomes (MLM); assay type: in vitro ADME; conditions: NADPH; for half-life at 1 μM: mouse, pooled mouse liver microsomes, pH 7.4, MLM (CD-1)
Description: MLM Stability Pooled MLM from CD-1 mice (BIOIVT M00501) were used.

[2] = Metabolic stability in human liver microsomes (HLM); assay type: in vitro ADME; conditions: for half-life at 1 μM: both sexes, human, pooled human liver microsomes, pH 7.4, NADPH
Description: HLM Stability. Pooled HLM from adult male and female donors (Corning 452117) were used.

[3] = Metabolic stability in rat liver microsomes (RLM); assay type: in vitro ADME; conditions: for half-life at 1 μM: both sexes, rat, pooled rat liver microsomes, pH 7.4, NADPH
5-HT2A receptor [4] = molecular target: T1, 5-HT2A receptor (Homo sapiens (Human), UniProt P28223); assay type: cell-based; conditions: beta-arrestin recruitment
Experimental: The degree of arrestin bias varied substantially across the other compounds tested as well.
Arrestin Functional Assay at 5-HT2A. Recruitment of beta-arrestin was determined using a PathHunter assay at Eurofins DiscoverX (Fremont, CA) according to their standard protocols. PathHunter GPCR beta-arrestin assays take advantage of DiscoverX's proprietary Enzyme Fragment Complementation technology. The GPCR is fused in frame with a small enzyme donor fragment ProLink™ (PK) and co-expressed in cells stably expressing a fusion protein of beta-arrestin and the larger, N-terminal deletion mutant of beta-galactosidase. Activation of the GPCR (5-HT2A receptor in this case) stimulates binding of beta-arrestin to the PK-tagged GPCR and forces complementation of the two enzyme fragments, resulting in the formation of an active beta-galactosidase enzyme. This interaction leads to an increase in enzyme activity that can be measured using chemiluminescent PathHunter Detection Reagents. Briefly, PathHunter cells expressing 5-HT2A receptors were seeded in a volume of 20 μL into 384-well plates and incubated at 37° C. for the appropriate time prior to testing. […] Plates were then imaged on a microplate reader and the agonist activity was calculated using the following formula: % Activity=100%×(mean RLU of test sample−mean RLU of vehicle control)/(mean MAX control ligand−mean RLU of vehicle control), where RLU=relative light units.

5-HT2A receptor [5] = molecular target: T1, 5-HT2A receptor; assay type: cell-based; conditions: Ca^2+ flux, HEK293
Experimental: (§1) Functional Assays at 5-HT2A, 5-HT2B, and 5-HT1A. Agonist activity at 5-HT2A, 5-HT2B, and 5-HT1A receptors was determined using a FLIPR Ca^2+ flux assay at WuXi AppTec (Hong Kong) Limited according to their standard protocols. Briefly, stably transfected cells expressing the receptor of interest (HEK293 for 5-HT2A and 5-HT2B; CHO cells for 5-HT1A) were grown and plated in a 384 well plate and incubated at 37° C. and 5% CO2 overnight. A solution of 250 mM probenecid in 1 mL FLIPR assay buffer was prepared fresh. This was combined with a fluorescent dye (Fluo-4 Direct™) to make a final assay concentration of 2.5 mM. […] The fluorescent dye was then added to the assay plate along with assay buffer to a final volume of 40 μL. The cell plate was incubated for 50 min at 37° C. and 5% CO2 and placed into the FLIPR Tetra along with the compound plate. 10p L of references and compounds were then transferred from the compound plate into the cell plate and the fluorescent signal was read.

5-HT2B receptor = 5-HT2B receptor (Homo sapiens (Human), UniProt P41595); assay: FLIPR Ca^2+ flux agonist assay at 5-HT2B; assay type: cell-based; conditions: HEK293
5-HT2B receptor, sequence (P41595 whole entry, looked up): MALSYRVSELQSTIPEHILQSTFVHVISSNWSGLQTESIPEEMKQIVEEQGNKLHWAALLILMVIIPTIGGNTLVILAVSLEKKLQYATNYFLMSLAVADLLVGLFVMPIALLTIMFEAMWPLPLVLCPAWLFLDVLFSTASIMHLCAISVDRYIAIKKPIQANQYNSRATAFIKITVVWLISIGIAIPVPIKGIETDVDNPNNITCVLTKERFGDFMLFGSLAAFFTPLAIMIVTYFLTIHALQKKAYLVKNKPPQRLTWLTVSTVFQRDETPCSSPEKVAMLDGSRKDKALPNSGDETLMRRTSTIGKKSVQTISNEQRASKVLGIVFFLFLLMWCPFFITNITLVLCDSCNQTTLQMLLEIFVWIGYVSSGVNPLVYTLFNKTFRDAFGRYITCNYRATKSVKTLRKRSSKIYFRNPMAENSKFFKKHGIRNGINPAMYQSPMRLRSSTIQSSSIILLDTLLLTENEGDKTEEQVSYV
Experimental: as §1

5-HT1A receptor = 5-HT1A receptor (Homo sapiens (Human), UniProt P08908); assay: FLIPR Ca^2+ flux agonist assay at 5-HT1A; assay type: cell-based; conditions: CHO cells
Experimental: as §1

human 5-HT2C receptor = human 5-HT2C receptor (Homo sapiens (Human), UniProt P28335); assay type: cell-based
human 5-HT2C receptor, sequence (P28335 33-458 limits assumed): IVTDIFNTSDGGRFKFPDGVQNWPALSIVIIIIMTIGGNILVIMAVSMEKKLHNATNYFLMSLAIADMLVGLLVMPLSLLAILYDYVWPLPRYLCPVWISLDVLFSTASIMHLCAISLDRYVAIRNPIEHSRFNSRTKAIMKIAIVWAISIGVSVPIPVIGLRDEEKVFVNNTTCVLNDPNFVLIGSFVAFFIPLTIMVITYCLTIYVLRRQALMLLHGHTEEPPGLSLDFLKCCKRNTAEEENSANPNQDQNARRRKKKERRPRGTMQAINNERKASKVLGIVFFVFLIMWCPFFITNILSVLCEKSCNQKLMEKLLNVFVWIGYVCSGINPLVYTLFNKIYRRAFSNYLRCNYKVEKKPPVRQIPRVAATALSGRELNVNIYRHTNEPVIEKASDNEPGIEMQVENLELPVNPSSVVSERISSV

C57BL/6 mice = assay: Mouse head twitch response (HTR) assay; assay type: in vivo; conditions: mouse HTR, SC; for # HTR at Most Efficacious Dose / Emax (95% CI): 20 min observation; for Emax (95% CI): curve fit
Experimental: Agonists of the 5-HT2A receptor are well known to induce this effect in rodents and the potency of this HTR is correlated with hallucinogenic potency in humans.
Animals. Adult male C57BL/6 mice, aged 6-8 weeks (body weight 20-25 g) were used in this experiment. Animals were housed under controlled temperatures and 12-hour light/dark cycles (lights on between 07:00-19:00 h), with ad libitum food and water. This study was carried out in strict accordance with the requirements of the Committee for the Purpose of Control and Supervision of Experiments on Animals (CPCSEA), India. All efforts were made to minimize suffering.
Drugs and Drug Administration. Compound 1 was synthesized as described above. It was administered subcutaneously (SC) dissolved in saline vehicle at a volume of 10 mL/kg. Five doses were tested, with n=6 animals/group. Doses were calculated on the basis of the freebase.
Procedure. Mice were administered one dose of the drug and immediately placed into a small open field for behavioral observation. Animals were observed continuously for 20 mins and the number of head twitches (HTs) were counted by an observer blind to the treatment condition.
Statistical Analysis. The data points shown are the mean±standard error of the mean (SEM). Analysis was performed using GraphPad Prism 6. Curves were fit using a non-linear gaussian distribution to calculate ED50 and Emax values.
Additional disclosed compounds were tested in the mouse head twitch response (HTR) assay according to the procedure described in Example 34. […] Lastly, compounds with much larger benzyl and phenethyl substituents on the amine nitrogen (e.g., 10 and 11) were low efficacy in this assay, consistent with their lower maximal efficacy in the arrestin functional assay (see Example 32).

| SMILES | half-life at 1 μM [1] [min] | half-life at 1 μM [2] [min] | half-life at 1 μM [3] [min] | 5-HT2A Arrestin % Act @ Max Dose (5-HT2A receptor [4]) [%] | 5-HT2A % Act @ Max Dose (5-HT2A receptor [5]) [%] | 5-HT2B % Act @ Max Dose (5-HT2B receptor) [%] | 5-HT1A % Act @ Max Dose (5-HT1A receptor) [%] | 5-HT2C % Act @ Max Dose (human 5-HT2C receptor; Ca^2+ flux) [%] | Most Efficacious Dose (C57BL/6 mice) | # HTR at Most Efficacious Dose (C57BL/6 mice) | Emax (95% CI) (C57BL/6 mice) | agonist type in the 5-HT2A arrestin recruitment assay, in words (5-HT2A receptor [4]) | Clint ([1]; MLM (CD-1), 1 μM) [µL/min/mg] | t1/2 ([1]; MLM (CD-1), 1 μM) [min] | Clint ([2]; 1 μM, NADPH) [µL/min/mg] | t1/2 ([2]; 1 μM, NADPH) [min] | Clint ([3]; 1 μM, NADPH) [µL/min/mg] | t1/2 ([3]; 1 μM, NADPH) [min] | 5-HT2C % Act @ Max Dose (human 5-HT2C receptor) [%] |
| --- | --- | --- | --- | --- | --- | --- | --- | --- | --- | --- | --- | --- | --- | --- | --- | --- | --- | --- | --- |
| CCC(CC)NC(=O)[C@H]1C=C2c3cccc4[nH]cc(c34)C[C@H]2N(C)C1 [Int14a, (6aR,9S)-7-methyl-N-(pentan-3-yl)-4,6,6a,7,8,9-hexahydroindolo[4,3-fg]quinoline-9-carboxamide] | 1.7 | 3.35 | 1.8 | 44.321 | 32.98 | 1.86 | 70.27 | 119.28 |  |  |  |  |  |  |  |  |  |  |  |
| C=CCN1C[C@@H](C(=O)N[C@H](C)CC)C=C2c3cccc4[nH]cc(c34)C[C@H]21 [Compound 8a, (6aR,9S)-7-allyl-N-((R)-sec-butyl)-4,6,6a,7,8,9-hexahydroindolo[4,3-fg]quinoline-9-carboxamide] | 0.8 | 3.4 | 1.7 | 81.117 | 87.45 | 35.71 | 90.34 | 13.314 |  |  |  |  |  |  |  |  |  |  |  |
| CCC[C@@H](C)NC(=O)[C@@H]1C=C2c3cccc4[nH]cc(c34)C[C@H]2N(CCC)C1 [Compound 7, (6aR,9R)-N-((R)-pentan-2-yl)-7-propyl-4,6,6a,7,8,9-hexahydroindolo[4,3-fg]quinoline-9-carboxamide] | 0.541 | 1.65 | 1.61 | 110.2 | 94.52 | 94.75 | 107.16 | 114.78 | (1 mg/kg) | 16.667 | 720.4 | full agonists |  |  |  |  |  |  |  |
| CCC(CC)NC(=O)[C@@H]1C=C2c3cccc4[nH]cc(c34)C[C@H]2N(C)C1 [Int14, (6aR,9R)-7-methyl-N-(pentan-3-yl)-4,6,6a,7,8,9-hexahydroindolo[4,3-fg]quinoline-9-carboxamide] | 6.07 | 17.6 | 38 | 44.377 | 93.33 | 9.84 | 102.46 | 99.149 | (1 mg/kg) | 10.5 | 21.63 | partial agonists |  |  |  |  |  |  |  |
| CC[C@@H](C)NC(=O)[C@@H]1C=C2c3cccc4[nH]cc(c34)C[C@H]2N(CC)C1 [Compound 5] |  |  |  | 105.72 | 102.81 | 84.77 | 107.87 |  | (0.32 mg/kg) | 17.667 | 15.22 | full agonists | 170.4 | 8.1 | 62.3 | 22.2 | 72.0 | 19.3 | 114.5 |
| C[C@H]1C[C@H](C)N1C(=O)[C@@H]1C=C2c3cccc4[nH]cc(c34)C[C@H]2N(C)C1 [Int11, ((2S,4S)-2,4-dimethylazetidin-1-yl)((6aR, 9R)-7-methyl-4,6,6a,7,8,9-hexahydroindolo[4,3-fg]quinolin-9-yl)methanone] | 13.9 | 25.7 | 54.9 | 49.269 | 110.03 | 38.15 | 89.9 |  | (0.1 mg/kg) | 10.667 | 10.93 | partial agonists |  |  |  |  |  |  |  |
| CCCN1C[C@@H](C(=O)N[C@H](C)CC)C=C2c3cccc4[nH]cc(c34)C[C@H]21 [Compound 3a, (6aR,9S)-N-((R)-sec-butyl)-7-propyl-4,6,6a,7,8,9-hexahydroindolo[4,3-fg]quinoline-9-carboxamide] | 0.6 | 2.2 | 1.4 | 112.91 | 92.04 | 52.81 | 108.14 | 108.705 |  |  |  |  |  |  |  |  |  |  |  |
| CCC[C@@H](C)NC(=O)[C@H]1C=C2c3cccc4[nH]cc(c34)C[C@H]2N(C)C1 [Int17a, (6aR,9S)-7-methyl-N-((R)-pentan-2-yl)-4,6,6a,7,8,9-hexahydroindolo[4,3-fg]quinoline-9-carboxamide] | 1.58 | 4.58 | 1.96 | 43.729 | 63.31 | 5.63 | 88.52 | 112.06 |  |  |  |  |  |  |  |  |  |  |  |
| CC[C@@H](C)NC(=O)[C@H]1C=C2c3cccc4[nH]cc(c34)C[C@H]2N(C)C1 [Int8a, (6aR,9S)-N-((R)-sec-butyl)-7-methyl-4,6,6a,7,8,9-hexahydroindolo[4,3-fg]quinoline-9-carboxamide] | 1.6 | 11.1 | 3.5 | 35.52 | 72.6 | 6.87 | 103.65 | 93.73 |  |  |  |  |  |  |  |  |  |  |  |
| CCN(CC)C(=O)[C@H]1C=C2c3cccc4[nH]cc(c34)C[C@H]2N(CCCF)C1 [Compound 2a, (6aR,9S)-N,N-diethyl-7-(3-fluoropropyl)-4,6,6a,7,8,9-hexahydroindolo[4,3-fg]quinoline-9-carboxamide] | 1.78 | 17 | 9.67 | 83.328 | 90.29 | 40.13 | 96.77 | 118.85 |  |  |  |  |  |  |  |  |  |  |  |
| CC[C@@H](C)NC(=O)[C@H]1C=C2c3cccc4[nH]cc(c34)C[C@H]2N(CC)C1 [Compound 5a, (6aR,9S)-N-((R)-sec-butyl)-7-ethyl-4,6,6a,7,8,9-hexahydroindolo[4,3-fg]quinoline-9-carboxamide] | 1.7 | 5.5 | 3.1 | 62.444 | 89.59 | 43.7 | 111.65 | 99.4405 |  |  |  |  |  |  |  |  |  |  |  |
